Entries after “also recorded” stand apart in the source; their conditions may differ.
Legend:
[1] = acute toxicity in mice (LD50); details: mouse, in vivo, hydrochloride
[2] = acute toxicity in rats (oral LD50); details: rat, in vivo, hydrochloride
[3] = system: Anesthetized Dog Challenged with Isoproterenol; test: inherent cardiac and blood pressure effects in the isoproterenol challenged intact anesthetized dog; assay type: in vivo; details: for Absolute Change From Control in Contractile Force (CF) / Absolute Change From Control in Heart Rate (HR) / Absolute Change From Control in Mean Arterial Blood Pressure (MABP): decrease
Experimental: One such test involves the measurement of inherent cardiac and blood pressure effects in the isoproterenol challenged intact anesthetized dog. In this test model, dogs are anesthetized with a mixture of phenobarbital sodium (15 mg./kg.) and barbital sodium (225 mg./kg.) intravenously and are vagotomized bilaterally. Heart rate, contractile force and diastolic blood pressure are continuously recorded with alterations in these responses (e.g. tachycardia) produced by intravenously administered isoproterenol determined before and after injection of increasing doses of the test compound. The test substance is administered to separate groups of dogs at cumulative doses of 0.1, 0.3, 1, 3, and 10 mg./kg. body weight with each dose of the test substance infused slowly over a period of 3-5 minutes. After completing infusion of the test substance, a 10 -minute equilibrium period is allowed for drug-receptor interaction and stabilization of the cardiovascular system before a series of isoproterenol challenges is initiated. Maximum response to isoproterenol is achieved after each dose of the beta-adrenergic blocking agent by logarithmically increasing the dose of this agonist as receptor blockade develops. Each dose of isoproterenol is given approximately 5 minutes after the previous one and the overall dose range for isoproterenol is from 0.03-300 micrograms per kilogram body weight. Mean changes in the resting levels of the cardiovascular variables (heart rate, contractile force, and mean arterial blood pressure) due to the administration of each agent (which is taken as a measure of the inherent drug effect) is determined and statistically compared using the Student's test.

[4] = system: Spontaneous Hypertensive Rat; test: lowering of blood pressure and heart rate in the spontaneously hypertensive rat (SHR); assay type: in vivo; details: for ED (40 mm Hg) / ED (10%): Rattus norvegicus, 4 h; for ED (40 mm Hg): read-out: Dose which lowers blood pressure by 40 mm Hg; for ED (10%): read-out: Dose which lowers heart rate by 10%; for reduction of heart rate / reduction of systolic blood pressure: doses of 50-200 mg./kg., 4 hours (FIG. 1, FIG. 2)
Experimental: FIG. 1 constitutes a dose-response graph of blood pressure and heart rate changes determined in the spontaneous hypertensive rat 4 hours after orally administered 4'-[1-hydroxy-2-[(1 -phenoxyethyl)amino]ethyl]methanesulfonanilide (Compound A). Blood pressure changes at doses of 50, 100, and 200 mg./kg. body weight are given in millimeters of mercury and are represented by circles (-0 -) with percent change in heart rate represented by squares (- -).
FIG. 2 constitutes a dose-response graph of blood pressure and heart rate changes similar to that of FIG. 1 for 4-[2-( 1-phenoxy-2-propylamino)-1-hydroxyethyl]methanesulfonanilide (Compound B).
Another in vivo animal experiment considered predictive of antihypertensive utility by those skilled in the art is the lowering of blood pressure in an inbred strain of spontaneously hypertensive rat (SHR) established by Okamoto and Aoki. In this test, systolic blood pressure and heart rate determinations are made immediately before the animals are orally dosed to provide control values and subsequently thereafter at 4 and 24-hour periods to determine drug effect. Various doses of test drug are administered and a dose-response graph obtained by plotting (on semi-log paper) the observed change (mm Hg) in systolic blood pressure and percent change in heart rate as […]. […] Values set forth in Table II below are taken from FIGS. 1 and 2.

mammals = test: general statement on heart rate at effective antihypertensive doses; assay type: in vivo; details: for change in heart rate: at effective antihypertensive or hypotensive doses
beta-receptor = details: isolated guinea pig tracheal spiral; Uloth et al., J. Med. Chem. 9, 88-97 (1966); cited from earlier work
[5] = 0.3 mg/kg i.v., + = increase from control (footnote c)

Structure (SMILES) | Absolute Change From Control in Contractile Force (CF) ([3]; 0.3 mg/kg i.v.) [gm] | Absolute Change From Control in Heart Rate (HR) ([3]; 0.3 mg/kg i.v.) [bpm] | Absolute Change From Control in Mean Arterial Blood Pressure (MABP) [3, 5] | Absolute Change From Control in Contractile Force (CF) ([3]; 1.0 mg/kg i.v.) [gm] | Absolute Change From Control in Heart Rate (HR) ([3]; 1.0 mg/kg i.v.) [bpm] | Absolute Change From Control in Mean Arterial Blood Pressure (MABP) ([3]; 1.0 mg/kg i.v.) [mm Hg] | Absolute Change From Control in Contractile Force (CF) ([3]; 3.0 mg/kg i.v.) [gm] | Absolute Change From Control in Heart Rate (HR) ([3]; 3.0 mg/kg i.v.) [bpm] | Absolute Change From Control in Mean Arterial Blood Pressure (MABP) ([3]; 3.0 mg/kg i.v.) [mm Hg] | Absolute Change From Control in Contractile Force (CF) ([3]; 10.0 mg/kg i.v.) [gm] | Absolute Change From Control in Heart Rate (HR) ([3]; 10.0 mg/kg i.v.) [bpm] | Absolute Change From Control in Mean Arterial Blood Pressure (MABP) ([3]; 10.0 mg/kg i.v.) [mm Hg] | effect on mean arterial blood pressure ([3]; doses of 0.3 to 1.0 mg./kg.) | ED (40 mm Hg) ([4]; oral, taken from FIGS. 1 and 2) [mg/kg] | ED (10%) ([4]; oral, taken from FIGS. 1 and 2) [mg/kg] | reduction of heart rate ([4]; oral) | reduction of systolic blood pressure ([4]; oral) | Percent decrease in heart rate at dose lowering blood pressure by 40 mm Hg ([4]; oral, taken from FIGS. 1 and 2) [%] | change in heart rate (mammals) | other results
CS(=O)(=O)Nc1ccc(C(O)CNCCOc2ccccc2)cc1.Cl (stereo not drawn) [4'-[1-Hydroxy-2-[(2-phenoxyethyl)amino]ethyl]methanesulfonanilide Hydrochloride] |  |  |  |  |  |  |  |  |  |  |  |  |  |  |  |  |  |  |  | LD50 ([1]; ip, intraperitoneal, read-out: intraperitoneal LD50): 273 mg/kg; LD50 ([1]; oral, read-out: oral LD50): 1920 mg/kg; LD50 ([2]; female rat): 1950 mg/kg; LD50 ([2]; male rat): 3550 mg/kg
CS(=O)(=O)Nc1ccc(C(O)CNCCOc2ccccc2)cc1 (stereo not drawn) [Compound A, 4'-[1-hydroxy-2-[(2-phenoxyethyl)amino]ethyl]methanesulfonanilide] | 8 ± 6 | 22 ± 4 | 17 ± 3 mm Hg | 11 ± 5 | 32 ± 5 | 12 ± 3 | 11 ± 5 | 38 ± 6 | 16 ± 4 | 17 ± 7 | 38 ± 6 | 34 ± 7 | effectively reduces mean arterial blood pressure | 165 | 150 | 2-12% | 22-43 mm Hg | 11 | little or no effect on heart rate | Absolute Change From Control in Contractile Force (CF) ([3]; 0.1 mg/kg i.v.): 9 ± 6 gm; Absolute Change From Control in Heart Rate (HR) ([3]; 0.1 mg/kg i.v.): 18 ± 4 bpm; Absolute Change From Control in Mean Arterial Blood Pressure (MABP) ([3]; 0.1 mg/kg i.v.): 11 ± 1 mm Hg; reduction in heart rate ([3]; dose of 0.1 mg./kg.): 12%; bradycardia liability relative to Compound B ([4]; at doses sufficient to reduce blood pressure by 40 mm Hg): about 50%; Percent decrease in blood pressure at dose lowering heart rate by 10% ([4]; oral, taken from FIGS. 1 and 2): 38%; change in heart rate (mammals; listed as compound of the instant invention): little or no significant change in heart rate; effect on blood pressure (mammals; effective dose): reduces blood pressure
CC(COc1ccccc1)NCC(O)c1ccc(NS(C)(=O)=O)cc1 (stereo not drawn) [Compound B, 4-[2-(1-phenoxy-2-propylamino)-1-hydroxyethyl]methanesulfonanilide, reference compound] | 6 ± 7 | 29 | +1 ± 5 mm Hg | 4 ± 7 | 39 ± 7 | 2 ± 6 | 4 ± 7 | 54 ± 7 | 10 ± 8 | 6 ± 9 | 72 ± 9 | 28 ± 14 | no significant effect | 100 | 18 | 17-25% | 18-64 mm Hg | 21 | substantial decrease in heart rate | reduction in heart rate ([3]; dose of 3 mg./kg.): 33%; effect on heart rate (bradycardia) ([3]; doses of 0.3 to 1.0 mg./kg.): pronounced bradycardia; decrease in blood pressure at dose lowering heart rate by 10% (in words) ([4]; oral, taken from FIGS. 1 and 2): no significant; also recorded: no effect on blood pressure; beta-receptor blocking activity relative to dichloroisoproterenol (beta-receptor): four times the activity of dichloroisoproterenol

Source: US4044150A, “Antihypertensive 4'-[1-hydroxy-2-[(1-phenoxy ethyl)-amino]ethyl]methanesulfonanilide and salts thereof and therapeutic use” (Mead Johnson & Company, priority 1976, dated 1977)
